Test results reported in US11766414B2, “Compositions, delivery systems, and methods useful in tumor therapy” (Indi Molecular, Inc., priority 2020, dated 2023).
Where two headings read alike, the source gives them in different places. Starred links: 1 amine or outer side, 2 acyl side, 3 side chain; linkers in the order of their positions; H or OH if unused. Positions of bridges follow the written chain, without caps; N, C: chain ends. Non-standard residues stand in square brackets, D forms with d. Residues, ends and D or L forms follow the SMILES beside them. Triazole bridges read from a SMILES are 1,4-linked. *: point of attachment. DOTA = O=C(O)CN1CCN(CC(=O)O)CCN(CC(=O)*)CCN(CC(=O)O)CC1; Pteroyl = Nc1nc2ncc(CNc3ccc(C(=O)*)cc3)nc2c(=O)[nH]1; Biotin = O=C1N[C@H]2[C@H](CS[C@H]2CCCCC(=O)*)N1; Butanoyl(4-(4-I-phenyl)) = O=C(CCCc1ccc(I)cc1)*; PEG10 = NCCOCCOCCOCCOCCOCCOCCOCCOCCOCCOCCC(=O)O; Lys(N3) = [N-]=[N+]=NCCCC[C@H](N)C(=O)O; γGlu = O=C(O)[C@H](CCC(=O)[*:2])N[*:1]; Pra = C#CC[C@H](N)C(=O)O

Legend:
[1] = Plasma protein binding, human plasma; format: in vitro ADME; conditions: human, plasma
Experimental: (§1) HTD 96 a/b regenerated cellulose membrane strips with mass cutoff of 12-14 kDa were soaked in ultra-pure water at room temperature for 1 hour. Each swelled membrane was then soaked in 20:80 ethanol:water for 20 minutes.
(§2) Just prior to the experiment, the membranes were re-soaked in ultra-pure water. Plasma was prepared by thawing under cold water. The plasma was centrifuged to remove any clots and pH was adjusted to 7.0-8.0. Test articles and control compounds were diluted to 2 μM. The dialysis device was loaded by transferring 150 μL of the test article (in triplicate) to the donor side. The dialysis device was placed in a humidified incubator at 37° C. with 5% CO2 in a shaking platform that rotated slowly for 4 hours. After incubation, 50 μL of the supernatant was taken from both sides and analyzed by LC-MS/MS.

[2] = Plasma protein binding, CD-1 mouse plasma; format: in vitro ADME; conditions: CD-1 mouse plasma; read-out: Plasma % Bound, Mu (converted)
Experimental: as §1, §2

human recombinant NEP = human recombinant NEP (Homo sapiens, UniProt P08473); experiment: NEP enzymatic cleavage assay (MALDI, HPLC); format: biochemical; conditions: for cleavage of the test article: 1 nM NEP, MALDI-TOF MS; for in vitro Assay Data (NEP assay): Table 2
Chain of human recombinant NEP (P08473 whole entry): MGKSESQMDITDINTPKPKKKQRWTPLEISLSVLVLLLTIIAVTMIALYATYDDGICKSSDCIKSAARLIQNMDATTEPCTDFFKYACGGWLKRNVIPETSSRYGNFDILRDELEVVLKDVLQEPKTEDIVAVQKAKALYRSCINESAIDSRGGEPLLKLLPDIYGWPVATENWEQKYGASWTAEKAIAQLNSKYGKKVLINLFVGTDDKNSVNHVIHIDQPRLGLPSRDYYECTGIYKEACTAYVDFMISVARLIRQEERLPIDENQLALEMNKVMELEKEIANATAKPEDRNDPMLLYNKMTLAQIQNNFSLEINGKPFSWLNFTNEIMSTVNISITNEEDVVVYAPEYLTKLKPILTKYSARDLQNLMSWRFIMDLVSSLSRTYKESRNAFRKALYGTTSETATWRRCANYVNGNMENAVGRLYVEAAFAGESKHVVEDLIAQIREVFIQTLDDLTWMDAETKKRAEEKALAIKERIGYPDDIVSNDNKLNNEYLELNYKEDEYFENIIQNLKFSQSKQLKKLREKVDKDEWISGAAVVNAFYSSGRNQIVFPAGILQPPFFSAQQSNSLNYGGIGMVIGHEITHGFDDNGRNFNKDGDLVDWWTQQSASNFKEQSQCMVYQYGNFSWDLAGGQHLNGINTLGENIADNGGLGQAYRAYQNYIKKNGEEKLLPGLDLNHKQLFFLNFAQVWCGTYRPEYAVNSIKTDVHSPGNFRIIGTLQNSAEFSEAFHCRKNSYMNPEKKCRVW
Experimental: In order to test the susceptibility of GFK and MVK linkers to NEP-mediated cleavage, the peptide (Folate-hshta-Lys(MPBA)-Gly-Phe-Lys(DOTA) (SEQ ID NO:6)) was incubated with human recombinant NEP and analyzed the solution for the presence of cleaved adducts. MALDI was utilized to monitor the cleavage of a PCC heterobiligand that contains a NEP protease recognizable sequence (G-F-K). The PCC concentration was constant and the NEP concentration was titrated down from 10 nM to 1 nM, 0.1 nM, 0.01 nM, and no NEP. The NEP-mediated cleaved adduct was identified by mass. 10 μM PCC containing the GFK linker was combined with varying amounts of NEP. […] Below 0.1 nM no cleavage was observed. • Folate-hshta-Lys(MPBA)-Gly-Phe-Lys(DOTA) (SEQ ID NO:6) • Molecular weight 2231.42
The NEP-mediated cleavage was also monitored by HPLC. In agreement with the MALDI spectra, the HPLC chromatograms show depletion of the parent brush-border heterobiligand (retention time 17.1 minutes), dose-dependent on the amount of NEP spiked into the sample (10 nM, 1 nM, 0.1 nM, 0.01 nM, and no NEP). An appearance of a new peak (retention time 16.5 minutes) in concert with the depletion of the starting material is presumed to be the cleaved folate-containing peptide.
In order to test the specificity of NEP, a non-cleavable linker (PEG3) was also assayed.
To reduce the radioactive dose to the kidney, Indi ^177Lu-7327 was constructed to incorporate a GFK linker that is susceptible to cleavage by enzymes found predominately in the kidney's brush border. These enzymes cleave off the radionuclide-chelator complex, which is quickly eliminated by the kidney for excretion in the urine. The zinc metalloprotease neprilysin (NEP) is expressed with high abundance in the kidney. […] To confirm NEP-mediated cleavage of the GFK linker in Indi 7327, the peptide was incubated with recombinant human NEP at 37° C. for 1 h and analyzed by matrix-assisted laser desorption/ionization mass spectrometry (MALDI-MS) for the evolution of cleaved adducts (FIG. 42). […] The expected cleaved adduct (mass: 1283.16 m/z) appears in the samples containing 10, 1.0, and 0.1 nM NEP. […] Below 0.1 nM NEP, no cleavage was observed. In addition to confirming the selectivity of NEP for the GFK linker, it is also important to note that the remaining portions of the Indi 7327 were impervious to the enzyme.

[3] = Plasma stability, human plasma
Experimental: (§3) Plasma was thawed in a 37° C. water bath. Residual clots were removed via centrifugation at 4000 rpm for 5 minutes. The pH of the plasma was adjusted to 7.4 if required. Test articles were diluted to 100 μM by diluting a 1 mM working solution (in DMSO) with 45% methanol in water. To 98 μL of plasma was added 2 μL of the 100 μM solution, resulting in 2 μM final concentration of the test article. Samples were incubated at 37° C. in a water bath. At the indicated time points (0, 10, 30, 60, 120 minutes) 100 μL of 4% H3PO4 was added followed by 800 μL of stop solution (200 ng/mL tolbutamide and 200 ng/mL labetalol in 100% acetonitrile). The samples were centrifuged and the plasma protein-free supernatant (100 μL) was subjected to LC-MS/MS analysis.

[4] = Plasma stability, CD-1 mouse plasma
Experimental: as §3

FOLR1 [5] = target: T1, FOLR1 (Homo sapiens, UniProt P15328); experiment: ELISA assay of FOLR1 binding
T1 sequence (P15328 25-234): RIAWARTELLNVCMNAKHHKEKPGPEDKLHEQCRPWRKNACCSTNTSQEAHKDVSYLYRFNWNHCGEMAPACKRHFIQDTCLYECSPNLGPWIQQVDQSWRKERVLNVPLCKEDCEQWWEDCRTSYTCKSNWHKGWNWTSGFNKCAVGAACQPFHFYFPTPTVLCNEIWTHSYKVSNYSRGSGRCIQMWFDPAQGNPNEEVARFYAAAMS
Text: FIG. 5 is a diagram of ELISA assay of FOLR1 binding of heterobiligands.

[6] = target: mouse recombinant FOLR1 (rMuFOLR1) (Mus musculus, UniProt P35846); experiment: ELISA cross reactivity with mouse recombinant FOLR1; format: binding; conditions: cross reactivity experiment
Chain of mouse recombinant FOLR1 (rMuFOLR1) (P35846 25-232): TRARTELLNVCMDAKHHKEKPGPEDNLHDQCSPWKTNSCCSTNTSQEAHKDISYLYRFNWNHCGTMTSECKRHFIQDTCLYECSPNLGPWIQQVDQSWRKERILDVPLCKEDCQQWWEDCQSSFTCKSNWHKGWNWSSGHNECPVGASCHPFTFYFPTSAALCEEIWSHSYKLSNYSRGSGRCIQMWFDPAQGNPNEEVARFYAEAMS
Text: Further evaluation of the folate-hshta (SEQ ID NO:6) Nterm heterobiligand depended on cross reactivity with mouse recombinant FOLR1 (rMuFOLR1). The heterobiligand binds to both species' variants of FOLR1 with high affinity. This observation was expected given the high homology between the two variants (approximately 92%).

[7] = test system: OVCAR3 FOLR1+ cells (PC-3 FOLR1− cells as negative line); experiment: Flow cytometry binding to FOLR1 (+) and FOLR1 (−) cell lines; format: cell-based, human; conditions: OVCAR3 vs PC-3, flow cytometry
Experimental: Both the kyeet (SEQ ID NO:9) and hshta (SEQ ID NO:6)-derived biligands were tested by flow cytometry for binding to FOLR1 (+) and FOLR1 (−) cell lines (FIGS. 6 and 7). The human ovarian adenocarcinoma-derived cell line OVCAR3 has robust FOLR1 expression and was selected as the FOLR1 (+) cell line. The human prostate adenocarcinoma-derived cell line PC-3 was selected as a FOLR1 (−) cell line.

FOLR1 [8] = target: T1, FOLR1; experiment: Folic acid competition ELISA; format: binding
Experimental: A competition experiment was conducted to further understand the binding kinetics of the lead heterobiligand (folate-hshta (SEQ ID NO:6) Nterm heterobiligand).

OVCAR3 cells [9] = experiment: Competition at the cellular level with exogenous folic acid (flow cytometry); format: cell-based, human
Text: Competition at the cellular level was also probed.

OVCAR3 cells [10] = experiment: Cell penetration / internalization assays (acid wash flow cytometry, fluorescence microscopy); format: cell-based, human
Experimental: FIG. 10 is a diagram of an assay for assessing cell internalization FOLR1 heterobiligands.
The folate-hshta (SEQ ID NO:6) Nterm heterobiligand was also evaluated in cell penetration imaging assays (FIG. 10). OVCAR3 and PC-3 cells were incubated with the test article at 37° C. for 1 hour. Flow cytometry analysis of the resulting treated cells indicated strong binding to FOLR1 (+) cells. To understand the proportion bound to the surface but not internalized, the cells were briefly washed with acid to liberate the non-internalized peptide.
To further understand intracellular trafficking of the Nterm heterobiligand, these dye-labeled compounds were imaged by fluorescence microscopy. The cells were counterstained with BioTracker 490, which stains membranes, and Rab5a+, an endosomal stain. […] Low levels of DyLight650 was detected within PC-3 (FOLR1−) cells. Taken together, internalization of the heterobiligand appears to be receptor driven and selective for FOLR1 (+) cells.

[11] = human plasma
Experimental: as §3

[12] = human plasma; remark: listed apart in the source
Experimental: as §3

[13] = mouse
Experimental: as §3

human serum albumin = human serum albumin (Homo sapiens, UniProt P02768); conditions: read-out: affinity for human serum albumin; cited from earlier work
[14] = human plasma, read-out: Plasma % Bound, Hu (converted)

Molecule: C[C@H](O)[C@H]1NC(=O)[C@@H](Cc2c[nH]cn2)NC(=O)[C@@H](CO)NC(=O)[C@@H](Cc2c[nH]cn2)NC(=O)[C@@H](NC(=O)CC[C@H](NC(=O)c2ccc(NCc3cnc4nc(N)[nH]c(=O)c4n3)cc2)C(=O)O)Cc2cn(nn2)CCCC[C@@H](C(=O)N[C@@H](CCCCNC(=O)CCCc2ccc(I)cc2)C(=O)NCC(=O)N[C@@H](Cc2ccccc2)C(=O)N[C@@H](CCCCNC(=O)CN2CCN(CC(=O)O)CCN(CC(=O)O)CCN(CC(=O)O)CC2)C(=O)O)NC(=O)[C@@H](C)NC1=O [Compound #1307, folate-hshta-Lys(IPBA)-Gly-Phe-Lys(DOTA)] ({Pteroyl-γGlu}-[Pra][dH][dS][dH][dT][dA][Lys(N3)]K(Butanoyl(4-(4-I-phenyl)))GFK(DOTA)-OH; triazole 1-7)
- fraction unbound [1, 14]: 0.005
- fraction unbound [2]: 0.004
- cleavage of the test article (human recombinant NEP): complete
- in vitro Assay Data (NEP assay) (human recombinant NEP): Cleavage of -G-F-K-
- half-life [3]: > 4.82 h
- half-life [4]: > 4.82 h

Molecule: C[C@H](O)[C@H]1NC(=O)[C@@H](Cc2c[nH]cn2)NC(=O)[C@@H](CO)NC(=O)[C@@H](Cc2c[nH]cn2)NC(=O)[C@@H](NC(=O)CC[C@H](NC(=O)c2ccc(NCc3cnc4nc(N)[nH]c(=O)c4n3)cc2)C(=O)O)Cc2cn(nn2)CCCC[C@@H](C(=O)NCCOCCOCCOCCOCCOCCOCCOCCOCCOCCOCCC(=O)NCCOCCOCCOCCOCCOCCOCCOCCOCCOCCOCCC(=O)N[C@@H](CCCCNC(=O)CCCC[C@@H]2SC[C@@H]3NC(=O)N[C@@H]32)C(N)=O)NC(=O)[C@@H](C)NC1=O [Folate-hshta Nterm, Folate-hshta-PEG10-PEG10-K(Biotin)] ({Pteroyl-γGlu}-[Pra][dH][dS][dH][dT][dA][Lys(N3)][PEG10][PEG10]K(Biotin)-NH2; triazole 1-7)
- greater affinity than folate itself (FOLR1 [5]; ELISA): ~30 fold
- EC50 (FOLR1 [5]; biotin-labeled constructs with MPBA or DOTA tag, read-out: EC50): 0.065 nM
- EC50 (FOLR1 [5]; cross reactivity experiment, read-out: Ec50, Human FOLR1): 0.35 nM
- EC50 [6]: 0.33 nM
- binding selectivity for FOLR1 (+) cells over FOLR1 (−) cells [7]: high selectivity
- binding affinity of the heterobiligand with folic acid doped in (FOLR1 [8]; folic acid from 0 to 500 nM): virtually unchanged
- binding of the heterobiligand with folic acid doped in (FOLR1 [8]; folic acid greater than 500 nM): partially compete away
- percentage of OVCAR3 cells binding (OVCAR3 cells [9]; 0.1 μg/mL folate): 57%
- percentage of OVCAR3 cells binding (OVCAR3 cells [9]; no folate): 76.6%
- percentage of positively stained cells (OVCAR3 cells [10]; OVCAR3, 37° C. 1 hour, before acid treatment): 73.4%
- percentage of positively stained cells (OVCAR3 cells [10]; OVCAR3, following acid treatment): 54.2%

Molecule: CSCC[C@H](NC(=O)[C@H](CCCCNC(=O)CCCc1ccc(I)cc1)NC(=O)[C@@H]1CCCCn2cc(nn2)C[C@H](NC(=O)CC[C@H](NC(=O)c2ccc(NCc3cnc4nc(N)[nH]c(=O)c4n3)cc2)C(=O)O)C(=O)N[C@H](Cc2c[nH]cn2)C(=O)N[C@H](CO)C(=O)N[C@H](Cc2c[nH]cn2)C(=O)N[C@H]([C@H](C)O)C(=O)N[C@H](C)C(=O)N1)C(=O)N[C@H](C(=O)N[C@@H](CCCCNC(=O)CN1CCN(CC(=O)O)CCN(CC(=O)O)CCN(CC(=O)O)CC1)C(=O)O)C(C)C [compound 1306, folate-hshta-Lys(IPBA)-M-V-Lys(DOTA)] ({Pteroyl-γGlu}-[Pra][dH][dS][dH][dT][dA][Lys(N3)]K(Butanoyl(4-(4-I-phenyl)))MVK(DOTA)-OH; triazole 1-7)
- fraction unbound [1, 14]: 0.0265
- fraction unbound ([1]; species not given, read-out: bound to plasma (converted)): ~0.03
- fraction unbound [2]: 0.0288
- cleavage of the test article (human recombinant NEP): substantial
- in vitro Assay Data (NEP assay) (human recombinant NEP): Cleavage of -M-V-K-
- half-life [3]: > 4.82 h
- half-life [4]: > 4.82 h

Molecule: C[C@H](O)[C@H]1NC(=O)[C@@H](Cc2cnc[nH]2)NC(=O)[C@@H](CO)NC(=O)[C@@H](Cc2cnc[nH]2)NC(=O)[C@@H](NC(=O)CC[C@H](NC(=O)c2ccc(NCc3cnc4nc(N)[nH]c(=O)c4n3)cc2)C(=O)O)Cc2cn(nn2)CCCC[C@@H](C(=O)NCC(=O)N[C@@H](Cc2ccccc2)C(=O)N[C@@H](CCCCNC(=O)CN2CCN(CC(=O)O)CCN(CC(=O)O)CCN(CC(=O)O)CC2)C(=O)O)NC(=O)[C@@H](C)NC1=O [compound 7327, folate-hshta-Gly-Phe-Lys(DOTA)] ({Pteroyl-γGlu}-[Pra][dH][dS][dH][dT][dA][Lys(N3)]GFK(DOTA)-OH; triazole 1-7)
- half-life [11]: > 115 h
- Plasma Stability (t 1/2), Hu [12]: Hu: >6937.7 min
- Plasma Stability (t 1/2), Mu [13]: Mu: >6937.7 min

Molecule: GI48-GA: albumin-binding fragment of protein G from Streptococcus strain GI48, SEQ ID NO:33 (LAEAKVLANRELDKYGVSDYYKNLINNAKTVEGVKALIDEILAA)
- Kd (human serum albumin): 1 nM
